Measurements as given in publication PMC12621189, “Optimization of Selective and CNS Penetrant Alkyne-Based TREK Inhibitors: The Discovery and Characterization of ONO-9517601 (VU6022856) and ONO-7927846 (VU6024391)” (Journal of Medicinal Chemistry, 2025).

Columns and labels:
[1] = molecular target: T1, human TREK-1 (hTREK-1) (Homo sapiens, UniProt O95069); test: TREK-1 thallium flux assay (CHO-K1 cells stably expressing hTREK-1); type: cell-based; conditions: human TREK-1, thallium flux; read-out: h TREK-1 Tl+ IC50
T1 construct: expressed in transfected cells
T1 sequence (O95069 1-426): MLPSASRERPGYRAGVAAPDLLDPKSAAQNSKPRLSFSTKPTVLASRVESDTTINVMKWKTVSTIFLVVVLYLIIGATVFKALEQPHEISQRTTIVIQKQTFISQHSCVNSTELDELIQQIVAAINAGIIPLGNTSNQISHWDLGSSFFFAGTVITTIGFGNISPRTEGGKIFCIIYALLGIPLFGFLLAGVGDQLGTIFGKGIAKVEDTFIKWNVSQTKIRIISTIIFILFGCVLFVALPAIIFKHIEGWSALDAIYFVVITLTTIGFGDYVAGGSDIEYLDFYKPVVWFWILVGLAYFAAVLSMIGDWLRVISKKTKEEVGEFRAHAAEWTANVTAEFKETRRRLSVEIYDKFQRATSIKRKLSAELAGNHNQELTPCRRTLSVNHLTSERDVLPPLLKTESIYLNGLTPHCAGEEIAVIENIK
Protocol: Procedures for Biological Experiments
TREK-1 Thallium flux assay
CHO-K1 cells stably expressing hTREK-1 were cultured in T225 flask. The cells were loaded with FluxOR dye and plated in 384 well plate at the experiment day. Test compounds or control compound (tert-butyl (3-((4-(benzyloxy)-2-methylphenyl)carbamoyl)-4-chlorophenyl)carbamate) or 0.3% DMSO (vehicle control) were added directly to the cell plates and incubated for 10 min, and then treated with thallium stimulus buffer to initiate thallium flux.
To measure the efficacy and potency of test compounds, the change in fluorescence intensity (ΔRatio) and % inhibition were calculated using the following equations:
ΔRatio = (fluorescence intensity at 25 seconds after thallium addition)/(average of fluorescent intensity before thallium addition)
(§1) 0.3% DMSO - ΔRatio of 10 μM control compound)}x100
(§2) % inhibition vs compound concentration were plotted in XLfit and calculated IC50.
CHO-K1 cells stably expressing human TREK-1 (hTREK-1) were cultured in T225 flask.
The cells were loaded with FluxOR dye and plated in 384 well plate at the experiment day. Test compounds or control compound (tert-butyl (3-((4-(benzyloxy)-2-methylphenyl)carbamoyl)-4-chlorophenyl)carbamate) or 0.3% DMSO (vehicle control) which were prepared on separate plates were added to the cell plates and incubated for 10 min, and then the cells with test compounds or […]
chlorophenyl)carbamate) or 0.3% DMSO (vehicle control) were treated with thallium stimulus buffer to initiate thallium flux. To measure the efficacy and potency of test compounds, the change in fluorescence intensity (ΔRatio) and % inhibition were calculated using the following equations: […]

[2] = ChromatoLogD; type: physicochemical
[3] = Liver microsome intrinsic clearance, human; type: in vitro ADME; conditions: pH 7.4; human liver microsomes, predicted intrinsic clearance; read-out: LMS CLINT human
Protocol: (§3) were incubated in 100 mM potassium phosphate pH 7.4 buffer with 3 mM MgCl2 at 37 °C with constant shaking. After a 5 min preincubation, the reaction was initiated by the addition of NADPH (1 mM). At selected time intervals (0, 3, 7, 15, 25, and 45 min), aliquots were taken and subsequently placed into a 96-well plate containing cold acetonitrile with internal standard (50 ng/mL carbamazepine). Plates were then centrifuged at 3000 rcf (4 °C) for 10 min, and the supernatant was transferred to a separate 96-well plate and diluted 1:1 with water for LC/MS/MS analysis. The in vitro half-life ( 1/2, min, Eq. 1), intrinsic clearance (CLint, mL/min/kg, Eq. 2), and subsequent predicted hepatic clearance (CLhep, mL/min/kg, Eq. 3) was determined employing the […]
(§4) where k represents the slope from linear regression analysis of the natural log percent remaining of a test compound as a function of incubation time […]
(§5) (2) CLint = in vitroT x mg microsomes x gram liver x kg body wt ascale-up factors: of 20 (human) or 45 (rat) […]
(§6) where Qh (hepatic blood flow, mL/min/kg) is 21 (human) or 70 (rat).
(§7) LC/MS/MS Bioanalysis of Samples from Plasma Protein Binding and Intrinsic Clearance […]
(§8) Samples were analyzed on a Thermo Electron TSQ Quantum Ultra triple quad mass spectrometer (San Jose, CA) via electrospray ionization (ESI) with two Themo Electron Accella pumps (San Jose, CA), and a Leap Technologies CTC PAL autosampler (Carrboro, NC). Analytes were […]

[4] = Liver microsome intrinsic clearance, mouse; type: in vitro ADME; conditions: pH 7.4; mouse liver microsomes, predicted intrinsic clearance; read-out: LMS CLINT mouse
[5] = Plasma protein binding, rat; type: in vitro ADME; conditions: rat, plasma, pH 7.4, rat plasma, bound; read-out: PPB rat (converted)
Protocol: (§9) Plasma protein binding and Brain homogenate binding: Determination of fraction unbound (f u) in plasma was conducted in vitro via equilibrium dialysis using HTDialysis (HTD) membrane plates. The top half of the plate was filled with 100 uL of Dubelco’s Phosphate Buffered Saline, pH 7.4 (DPBS). Compounds were diluted into plasma from each species (5 µM final concentration), which was aliquoted in triplicate to the ‘bottom half’ of the prepared HTD plate wells. The HTD plate was sealed and incubated for 6 hours at 37 °C. Following incubation, each well (both top and bottom halves) were transferred (20 µL) to the corresponding wells of a 96-shallow-well (V-bottom) plate. The daughter plates were then matrix-matched (DPBS side wells received equal volume of plasma, and plasma side wells received equal volume of DPBS), and extraction solution (120 µL; acetonitrile containing 50 nM carbamazepine as IS) was added to all wells of both daughter plates to precipitate protein and extract test article. The plates were then sealed and centrifuged (3500 rcf) for 10 minutes at ambient temperature. Supernatant (60 µL) from each well of the daughter plates was then transferred to the corresponding wells of new daughter plates (96-shallow-well, V bottom) containing water (Milli-Q, 60 µL/well), and the plates were sealed in preparation for LC-MS/MS analysis (see LC-MS/MS analysis method below).
(§10) The unbound fraction (f u) was calculated following the equation below, and mean values for each species were calculated from 3 replicates. […]
(§11) Fraction unbound for both plasma and brain samples was determined using Equation 4.
(§12) Equation 4 Determination of fraction unbound in plasma. […]

[6] = Liver microsome intrinsic clearance, rat; type: in vitro ADME; conditions: pH 7.4; rat liver microsomes, predicted intrinsic clearance; read-out: LMS CLINT rat
Protocol: as §3, §4, §5, §6, §7, §8

[7] = Plasma protein binding, mouse; type: in vitro ADME; conditions: mouse, plasma, pH 7.4, mouse plasma, bound; read-out: PPB mouse (converted)
Protocol: as §9, §10, §11, §12

[8] = molecular target: T2, human TREK-2 (hTREK-2) (Homo sapiens, UniProt P57789); test: TREK-2 thallium flux assay (HEK293 cells stably expressing hTREK-2); type: cell-based; conditions: human TREK-2, thallium flux; read-out: h TREK-2 Tl+ IC50
T2 construct: expressed in transfected cells
T2 sequence (P57789 1-538): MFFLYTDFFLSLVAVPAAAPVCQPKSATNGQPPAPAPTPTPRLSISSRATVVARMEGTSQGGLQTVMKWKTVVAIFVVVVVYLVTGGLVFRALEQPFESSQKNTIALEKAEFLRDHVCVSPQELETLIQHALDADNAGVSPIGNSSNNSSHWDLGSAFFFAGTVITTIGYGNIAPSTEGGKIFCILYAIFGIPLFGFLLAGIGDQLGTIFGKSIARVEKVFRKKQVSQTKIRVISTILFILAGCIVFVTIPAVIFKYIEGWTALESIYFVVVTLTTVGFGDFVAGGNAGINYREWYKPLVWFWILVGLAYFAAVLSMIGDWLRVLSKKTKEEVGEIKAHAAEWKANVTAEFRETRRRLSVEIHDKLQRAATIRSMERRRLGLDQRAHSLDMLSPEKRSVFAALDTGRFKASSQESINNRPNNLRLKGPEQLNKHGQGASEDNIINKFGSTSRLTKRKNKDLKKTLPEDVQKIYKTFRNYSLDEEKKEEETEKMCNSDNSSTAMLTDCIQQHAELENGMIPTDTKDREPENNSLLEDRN
Protocol: as §1, §2
TREK-2 Thallium flux assay
HEK293 cells stably expressing human TREK-2 (hTREK-2) are plated in 384-well plates, cultured overnight, loaded with Thallos dye the following day. Test compounds or control compound (tert-butyl (3-((4-(benzyloxy)-2-methylphenyl)carbamoyl)-4-chlorophenyl)carbamate) or 0.3% DMSO (vehicle control) which are prepared on separate plates are added to the cell plates and incubated for 10 min, and then the cells were treated with thallium stimulus buffer to initiate […]
To measure the efficacy and potency of test compounds, the change in fluorescence intensity (ΔRatio) and % inhibition are calculated using the following equations: […]

SMILES | IC50 [1] [nM] | IC50 [8] [nM] | also measured
Cc1cc(C#Cc2ccccc2)cnc1NC(=O)c1c(Cl)cnn1CC1COCCO1 (centres unmarked) [Compound 8, 1-((1,4-Dioxan-2-yl)methyl)-4-chloro-N-(3-methyl-5-(phenylethynyl)pyridin-2-yl)-1H-pyrazole-5-carboxamide] | 670 | – | –
Cc1cc(C#Cc2ccccc2)cnc1NC(=O)c1cc(-c2noc(C3CCOC3)n2)ccc1Cl (centres unmarked) [Compound 13b, 2-Chloro-N-(3-methyl-5-(phenylethynyl)pyridin-2-yl)-5-(5-(tetrahydrofuran-3-yl)-1,2,4-oxadiazol-3-yl)benzamide] | 48 | – | chromatographic logD [2]: 5.01; CLint scaled at 1 µM [3]: 71 mL/min/kg; CLint scaled at 1 µM [4]: 68 mL/min/kg
Cc1cc(C#Cc2ccccc2)cnc1NC(=O)c1cc(NC(=O)OC(C)(C)C)ccc1Cl [Compound 13e] | 140 | – | chromatographic logD [2]: 5.15
Cc1cc(C#Cc2ccccc2)cnc1NC(=O)c1c(Cl)cnn1CC1CCOCC1 [Compound 14b, 4-Chloro-N-(3-methyl-5-(phenylethynyl)pyridin-2-yl)-1-((tetrahydro-2H-pyran-4-yl)methyl)-1H-pyrazole-5-carboxamide] | 200 | – | –
Cc1cc(C#Cc2ccccc2)cnc1NC(=O)c1c(Cl)cnn1-c1ccc2c(cnn2C)c1 [Compound 15c, 4-Chloro-1-(1-methyl-1H-indazol-5-yl)-N-(3-methyl-5-(phenylethynyl)pyridin-2-yl)-1H-pyrazole-5-carboxamide] | 84 | – | fraction unbound at 6 h, 5 µM [5]: 0.002
Cc1cc(C#Cc2ccccc2)cnc1NC(=O)c1c(Cl)cnn1CCCC#N [Compound 15d, 4-Chloro-1-(3-cyanopropyl)-N-(3-methyl-5-(phenylethynyl)pyridin-2-yl)-1H-pyrazole-5-carboxamide] | – | – | CLint scaled at 1 µM [6]: 30 mL/min/kg; CLint scaled at 1 µM [3]: 9 mL/min/kg; fraction unbound at 6 h, 5 µM [7]: 0.001
CC(=O)N1C[C@H]2C[C@H](n3ncc(Cl)c3C(=O)Nc3ncc(C#Cc4ccccc4)cc3C)C[C@H]2C1 [Compound 15g, 1-((3aR,5s,6aS)-2-Acetyloctahydrocyclopenta[c]pyrrol-5-yl)-4-chloro-N-(3-methyl-5-(phenylethynyl)pyridin-2-yl)-1H-pyrazole-5-carboxamide] | – | – | fraction unbound at 6 h, 5 µM [5]: 0.009
CC(=O)N1CCC(n2ncc(Cl)c2C(=O)Nc2ncc(C#Cc3ccccc3)cc2C)C(F)C1 (centres unmarked) [Compound 16a, 1-(1-Acetyl-3-fluoropiperidin-4-yl)-4-chloro-N-(3-methyl-5-(phenylethynyl)pyridin-2-yl)-1H-pyrazole-5-carboxamide] | 98 | 280 | –
CC(=O)N1CC[C@@H](n2ncc(Cl)c2C(=O)Nc2ncc(C#Cc3ccccc3)cc2C)[C@H](F)C1 [Compound 16b, 1-((3R,4R)-1-Acetyl-3-fluoropiperidin-4-yl)-4-chloro-N-(3-methyl-5-(phenylethynyl)pyridin-2-yl)-1H-pyrazole-5-carboxamide] | 96 | 290 | CLint scaled at 1 µM [6]: 94 mL/min/kg; CLint scaled at 1 µM [3]: 13 mL/min/kg
CC(=O)N1CC[C@@H](n2ncc(Cl)c2C(=O)Nc2ncc(C#Cc3ccccc3)cc2C)[C@@H](F)C1 [Compound 16c, 1-((3S,4R)-1-Acetyl-3-fluoropiperidin-4-yl)-4-chloro-N-(3-methyl-5-(phenylethynyl)pyridin-2-yl)-1H-pyrazole-5-carboxamide] | 160 | 530 | –
CC(=O)N1CC[C@H](n2ncc(Cl)c2C(=O)Nc2ncc(C#Cc3ccccc3)cc2C)[C@H](F)C1 [Compound 16d, 1-((3R,4S)-1-Acetyl-3-fluoropiperidin-4-yl)-4-chloro-N-(3-methyl-5-(phenylethynyl)pyridin-2-yl)-1H-pyrazole-5-carboxamide] | – | 530 | –
CC(=O)N1CC[C@H](n2ncc(Cl)c2C(=O)Nc2ncc(C#Cc3ccccc3)cc2F)[C@H](F)C1 [Compound 16e, 1-((3R,4S)-1-Acetyl-3-fluoropiperidin-4-yl)-4-chloro-N-(3-fluoro-5-(phenylethynyl)pyridin-2-yl)-1H-pyrazole-5-carboxamide] | 70 | 330 | –
CC(=O)N1CC[C@H](n2ncc(Cl)c2C(=O)Nc2ncc(C#Cc3ccccc3)cc2F)[C@@H](F)C1 [Compound 16f, 1-((3S,4S)-1-Acetyl-3-fluoropiperidin-4-yl)-4-chloro-N-(3-fluoro-5-(phenylethynyl)pyridin-2-yl)-1H-pyrazole-5-carboxamide] | – | 470 | –
